Target: interaction between PD-1 and PD-L1 (Homo sapiens (Human), UniProt Q9NZQ7)
Test: Cisbio PD-1/PD-L1 binding assay kit (HTRF)
Settings: read-out: IC50, inhibitory activity at molecular level on the interaction between PD-1 and PD-L1
From the text: 1. In vitro activity evaluation: Cisbio PD-1/PD-L1 binding assay kit was applied for the detection method of in vitro enzymology level.
1) Principle: PD-1 protein is with HIS tag, and PD-1 ligand PD-L1 is with hFc tag. Eu labeled anti-hFc antibody and XL665 labeled anti-HIS antibody are combined with the above two label proteins respectively. After laser excitation, energy can be transferred from donor Eu to receptor XL665, allowing XL665 to glow.
2) Experimental method: The specific method can be referred to Cisbio's PD-1/PD-L1 Kit (item 64CUS000C-2). Reagents should be dispensed in the following order. For 384-well white ELISA plate, 2 μl of diluent or target compound diluted with diluent was added to each well, and then 4 μl of PD-1 protein and 4 μl of PD-L1 protein were added per well, incubated for 15 min at room temperature; and 10 μl of a mixture of anti-Tag1-Eu3^+ and anti-Tag2-XL665 was added per well and incubated for 1 h to 4 h at room temperature and the fluorescence signals at 665 nm and 620 nm were measured with an Envison instrument. HTRF rate=(665 nm/620 nm)*10^4. 8-10 concentrations were detected for each compound and IC50 was calculated by Graphpad software.

Chain of interaction between PD-1 and PD-L1 (Q9NZQ7 19-238): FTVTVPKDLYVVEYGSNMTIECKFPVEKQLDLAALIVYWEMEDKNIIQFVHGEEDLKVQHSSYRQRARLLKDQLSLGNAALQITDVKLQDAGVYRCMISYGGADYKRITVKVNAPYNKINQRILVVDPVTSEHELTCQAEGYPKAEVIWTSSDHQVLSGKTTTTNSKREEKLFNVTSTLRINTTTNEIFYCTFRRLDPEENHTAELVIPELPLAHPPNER

SMILES | IC50 [µM]
CC(=O)NCCNCc1ccc(OCc2cccc(-c3ccccc3)c2Br)cc1OCc1cccc(C#N)c1 [Example 1, N-acetylaminoethyl-4-(2-bromo-3-phenylbenzyloxy)-2-(3-cyanobenzyloxy) benzylamine] | 0.439
CCN(CCO)Cc1ccc(OCc2cccc(-c3ccccc3)c2Br)cc1OCc1cccc(C#N)c1 [Example 3, N-Ethyl-N-hydroxylethyl-4-(2-bromo-3-phenylbenzyloxy)-2-(3-cyanobenzyloxy) benzylamine] | 0.23
N#Cc1cccc(COc2cc(OCc3cccc(-c4ccccc4)c3Br)ccc2CNCCO)c1 [Example 5, N-hydroxylethyl-4-(2-bromo-3-phenylbenzyloxy)-2-(3-cyanobenzyloxy) benzylamine] | 0.307
CSCC[C@H](NCc1ccc(OCc2cccc(-c3ccccc3)c2Br)cc1OCc1cccc(C#N)c1)C(=O)O [Example 7, N-(4-(2-bromo-3-phenylbenzyloxy)-2-(3-cyanobenzyloxy)benzyl) methionine] | 4.59
N#Cc1cccc(COc2cc(OCc3cccc(-c4ccccc4)c3Br)ccc2CNC2CCOCC2)c1 [Example 9, N-(tetrahydro-2H-pyran-4-yl)-4-(2-bromo-3-phenylbenzyloxy)-2-(3-cyanobenzyloxy) benzylamine] | 0.788
COc1ccc(-c2cccc(COc3ccc(CNCCO)c(OCc4cccc(C#N)c4)c3)c2Br)cc1OC [Example 11, N-hydroxylethyl-4-(2-bromo-3-(3,4-dimethoxyphenyl)benzyloxy)-2-(3-cyanobenzyloxy) benzylamine] | 7.87
COc1ccc(-c2cccc(COc3ccc(CN[C@@H](CO)C(=O)O)c(OCc4cccc(C#N)c4)c3)c2Br)cc1OC [Example 13, N-(4-(2-bromo-3-(3,4-dimethoxyphenyl)benzyloxy)-2-(3-cyanobenzyloxy)benzyl) serine] | 5.35
COc1ccc(-c2cccc(COc3ccc(CNCCNC(C)=O)c(OCc4cccc(C#N)c4)c3)c2Br)cc1OC [Example 14, N-acetylaminoethyl-4-(2-bromo-3-(3,4-dimethoxyphenyl)benzyloxy)-2-(3-cyanobenzyloxy) benzylamine] | 6.65
CC(=O)NCCNCc1ccc(OCc2cccc(-c3ccc4c(c3)OCCO4)c2Br)cc1OCc1cccc(C#N)c1 [Example 16, N-acetylaminoethyl-4-(2-bromo-3-(2,3-dihydrobenzo[b][1,4]dioxin-6-yl)benzyloxy)-2-(3-cyanobenzyloxy) benzylamine] | 0.268
COc1ccc(-c2cccc(COc3ccc(CN[C@@H](C)C(=O)O)c(OCc4cccc(C#N)c4)c3)c2Br)cc1OC [Example 17, N-(4-(2-bromo-3-(3,4-dimethoxyphenyl)benzyloxy)-2-(3-cyanobenzyloxy)benzyl) alanine] | 3.16

The next compounds have a lower IC50 than those just listed; values first:

IC50 [µM] | SMILES
0.134 | C[C@H](O)[C@@H](NCc1ccc(OCc2cccc(-c3ccccc3)c2Br)cc1OCc1cccc(C#N)c1)C(=O)O (stereo in doubt) [Example 8, N-(4-(2-bromo-3-phenylbenzyloxy)-2-(3-cyanobenzyloxy)benzyl) threonine]
0.0181 | C[C@H](O)[C@@H](NCc1ccc(OCc2cccc(-c3ccc4c(c3)OCCO4)c2Br)cc1OCc1cccc(C#N)c1)C(=O)O (stereo in doubt) [Example 19, N-(4-(2-bromo-3-(2,3-dihydrobenzo[b][1,4]dioxin-6-yl)benzyloxy)-2-(3-cyanobenzyloxy)benzyl) threonine]
0.00316 | C[C@@H](NCc1cc(Cl)c(OCc2cccc(-c3ccccc3)c2Br)cc1OCc1cccc(C#N)c1)C(=O)O (stereo in doubt) [Example 25, N-(4-(2-bromo-3-phenylbenzyloxy)-5-chloro-2-(3-cyanobenzyloxy)benzyl)alanine]
≤ 0.01 | C[C@H](O)[C@@H](NCc1cc(Cl)c(OCc2cccc(-c3ccccc3)c2Br)cc1OCc1cccc(C#N)c1)C(=O)O (stereo in doubt) [Example 26, N-(4-(2-bromo-3-phenylbenzyloxy)-5-chloro-2-(3-cyanobenzyloxy)benzyl) threonine]
≤ 0.01 | CS(=O)(=O)c1cccc(COc2cc(OCc3cccc(-c4ccccc4)c3Br)c(Cl)cc2CN[C@H](CO)C(=O)O)c1 (stereo in doubt) [Example 27, N-(4-(2-bromo-3-phenylbenzyloxy)-5-chloro-2-(3-methanesulfonylbenzyloxy)benzyl) serine]
≤ 0.01 | CS(=O)(=O)c1cccc(COc2cc(OCc3cccc(-c4ccccc4)c3Br)c(Cl)cc2CN2CCCC[C@H]2C(=O)O)c1 (stereo in doubt) [Example 28, N-(4-(2-bromo-3-phenylbenzyloxy)-5-chloro-2-(3-methanesulfonylbenzyloxy)benzyl) pipecolinic acid]
0.0294 | N#Cc1cccc(COc2cc(OCc3cccc(-c4ccccc4)c3Br)ccc2CN[C@@H](CO)C(=O)O)c1 [Example 2, N-(4-(2-bromo-3-phenylbenzyloxy)-2-(3-cyanobenzyloxy)benzyl) serine]
0.0592 | N#Cc1cccc(COc2cc(OCc3cccc(-c4ccccc4)c3Br)ccc2CN2CCC[C@H]2C(=O)O)c1 [Example 4, N-(4-(2-bromo-3-phenylbenzyloxy)-2-(3-cyanobenzyloxy)benzyl) proline]
0.178 | C[C@H](NCc1ccc(OCc2cccc(-c3ccccc3)c2Br)cc1OCc1cccc(C#N)c1)C(=O)O [Example 6, N-(4-(2-bromo-3-phenylbenzyloxy)-2-(3-cyanobenzyloxy)benzyl) alanine]
0.0385 | N#Cc1cccc(COc2cc(OCc3cccc(-c4ccc5c(c4)OCCO5)c3Br)ccc2CN[C@@H](CO)C(=O)O)c1 [Example 18, N-(4-(2-bromo-3-(2,3-dihydrobenzo[b][1,4]dioxin-6-yl)benzyloxy)-2-(3-cyanobenzyloxy)benzyl) serine]
0.00248 | N#Cc1cccc(COc2cc(OCc3cccc(-c4ccccc4)c3Br)c(Cl)cc2CN[C@@H](CO)C(=O)O)c1 [Example 20, N-(4-(2-bromo-3-phenylbenzyloxy)-5-chloro-2-(3-cyanobenzyloxy)benzyl) serine]
0.0675 | N#Cc1cccc(COc2cc(OCc3cccc(-c4ccc5c(c4)OCCO5)c3Br)c(Cl)cc2CN2CCCC[C@H]2C(=O)O)c1 [Example 24, (S)—N-(4-(2-bromo-3-(2,3-dihydrobenzo[b][1,4]dioxin-6-yl)benzyloxy)-5-chloro-2-(3-cyanobenzyloxy)benzyl) pipecolinic acid]
